{"source": "ChEMBL document CHEMBL1208766", "about": "“Synthesis of potent chemical inhibitors of dynamin GTPase” (Bioorg Med Chem Lett, 2010)", "key": {"Homo sapiens": {"species": "Homo sapiens", "test": "Inhibition of GTPase activity of human mitochondrial Drp1 expressed in Escherichia coli BL-21"}, "COS-7 [1]": {"test_system": "COS-7", "test": "Inhibition of transferrin uptake in african green monkey COS7 cells after 30 mins by microscopic TexasRed imaging", "format": "functional, cell-based", "settings": "Chlorocebus aethiops"}, "Dynamin-1": {"target": "T1, Dynamin-1 (Homo sapiens, UniProt Q05193)", "T1 sequence (Q05193 whole entry)": "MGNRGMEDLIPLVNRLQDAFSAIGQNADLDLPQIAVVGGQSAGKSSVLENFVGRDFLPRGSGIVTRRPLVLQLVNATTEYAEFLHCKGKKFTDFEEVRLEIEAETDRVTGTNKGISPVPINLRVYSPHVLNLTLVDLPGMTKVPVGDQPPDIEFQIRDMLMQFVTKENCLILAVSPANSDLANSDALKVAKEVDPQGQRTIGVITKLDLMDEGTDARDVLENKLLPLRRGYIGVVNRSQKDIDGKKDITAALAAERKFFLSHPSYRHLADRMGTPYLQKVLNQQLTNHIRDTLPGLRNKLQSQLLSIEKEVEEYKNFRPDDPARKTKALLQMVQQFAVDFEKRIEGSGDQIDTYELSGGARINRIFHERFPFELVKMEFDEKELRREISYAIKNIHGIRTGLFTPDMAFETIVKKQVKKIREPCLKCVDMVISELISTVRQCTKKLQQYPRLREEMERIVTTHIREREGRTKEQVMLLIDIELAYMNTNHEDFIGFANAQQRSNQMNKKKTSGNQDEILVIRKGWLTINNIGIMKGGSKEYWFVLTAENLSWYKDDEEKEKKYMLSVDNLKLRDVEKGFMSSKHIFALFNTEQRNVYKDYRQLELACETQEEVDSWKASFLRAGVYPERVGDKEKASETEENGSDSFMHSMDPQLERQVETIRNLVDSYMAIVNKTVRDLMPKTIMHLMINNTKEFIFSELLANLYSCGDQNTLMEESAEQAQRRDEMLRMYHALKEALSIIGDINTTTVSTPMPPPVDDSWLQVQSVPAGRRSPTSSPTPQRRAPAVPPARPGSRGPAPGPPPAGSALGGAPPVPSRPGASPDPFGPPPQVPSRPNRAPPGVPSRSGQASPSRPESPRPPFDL", "test": "(§1) Inhibition of GTPase activity of Dynamin 1"}, "Dynamin-1 (Homo sapiens)": {"target": "T2, Dynamin-1 (Homo sapiens) (UniProt Q05193)", "T2 sequence (whole entry)": "T1 sequence (Q05193 whole entry)", "test": "as §1", "parameters": "concentration or dose not given beside the values", "settings": "concentration not given here"}, "[2]": {"test_system": "Cell division control protein 42 homolog", "test": "Inhibition of GTPase activity of Cdc42"}, "[3]": {"test": "Cytotoxicity against african green monkey COS7 cells after 12 hrs", "format": "cell-based", "settings": "chlorocebus aethiops, cos-7, 12 h"}, "COS-7 [4]": {"test_system": "COS-7", "test": "Inhibition of transferrin uptake in african green monkey COS7 cells by microscopic TexasRed imaging", "format": "functional, cell-based", "settings": "Chlorocebus aethiops"}, "COS-7 [5]": {"test_system": "COS-7", "test": "Inhibition of dynamin 1 mediated membrane fission in african green monkey Cos7 cells transfected with mRFP-LCa at 10 uM by total internal reflection fluorescence microscopy", "format": "cell-based", "settings": "Chlorocebus aethiops"}}, "note": "Active and inactive are the calls of the source. No cut-off for these calls is given here.", "data": [{"compound": "O=C(N/N=C/c1ccc(O)c(O)c1)c1ccc2ccccc2c1", "values": [{"measurement": "inhibition", "setting": "Homo sapiens", "result": "Active"}, {"measurement": "inhibition", "setting": "COS-7 [1]", "result": "inactive"}, {"measurement": "IC50", "setting": "Dynamin-1", "result": 5.1, "unit": "µM"}, {"measurement": "inhibition", "setting": "Dynamin-1 (Homo sapiens)", "result": 73.2, "unit": "%"}, {"measurement": "inhibition", "setting": "[2]", "result": "inactive"}, {"measurement": "Activity", "setting": "[3]", "result": "Non-toxic"}, {"measurement": "IC50", "setting": "COS-7 [4]", "result": 4, "unit": "µM"}, {"measurement": "inhibition", "setting": "COS-7 [5]", "result": "Active"}]}, {"compound": "O=C(N/N=C/c1ccc(Cl)c(Cl)c1)c1ccc2ccccc2c1", "values": [{"measurement": "inhibition", "setting": "Dynamin-1 (Homo sapiens)", "result": 0, "unit": "%"}]}, {"compound": "O=C(OP(=O)(N1CCOC1=O)N1CCOC1=O)c1ccc2ccccc2c1", "values": [{"measurement": "inhibition", "setting": "Dynamin-1 (Homo sapiens)", "result": 0, "unit": "%"}, {"measurement": "inhibition", "setting": "COS-7 [4]", "result": "Active"}]}, {"compound": "NCCc1ccc(OC(=O)c2ccc3ccccc3c2)cc1", "values": [{"measurement": "inhibition", "setting": "Dynamin-1 (Homo sapiens)", "result": 0, "unit": "%"}]}, {"compound": "O=C(NCCc1ccc(O)cc1)c1ccc2ccccc2c1", "values": [{"measurement": "inhibition", "setting": "Dynamin-1 (Homo sapiens)", "result": 0, "unit": "%"}]}, {"compound": "Cc1ccc(/C=N/NC(=O)c2ccc3ccccc3c2)cc1C", "values": [{"measurement": "inhibition", "setting": "Dynamin-1 (Homo sapiens)", "result": 0, "unit": "%"}]}, {"compound": "COc1ccc(/C=N/NC(=O)c2cc3ccccc3cc2O)cc1O", "values": [{"measurement": "inhibition", "setting": "Homo sapiens", "result": "Active"}, {"measurement": "inhibition", "setting": "COS-7 [1]", "result": "inactive"}, {"measurement": "IC50", "setting": "Dynamin-1", "result": 3.6, "unit": "µM"}, {"measurement": "inhibition", "setting": "Dynamin-1 (Homo sapiens)", "result": 74.7, "unit": "%"}, {"measurement": "inhibition", "setting": "[2]", "result": "inactive"}, {"measurement": "Activity", "setting": "[3]", "result": "Non-toxic"}, {"measurement": "IC50", "setting": "COS-7 [4]", "result": 2.6, "unit": "µM"}, {"measurement": "inhibition", "setting": "COS-7 [5]", "result": "Active"}]}, {"compound": "O=C(N/N=C/c1ccc(Cl)c(Cl)c1)c1cc2ccccc2cc1O", "values": [{"measurement": "inhibition", "setting": "Dynamin-1 (Homo sapiens)", "result": 0, "unit": "%"}]}, {"compound": "O=C(N/N=C/c1cc(O)ccc1[N+](=O)[O-])c1cc2ccccc2cc1O", "values": [{"measurement": "inhibition", "setting": "Dynamin-1 (Homo sapiens)", "result": 0, "unit": "%"}]}, {"compound": "O=C(N/N=C/c1ccc(O)c(O)c1)c1cc2ccccc2cc1O", "note": "[DYNASORE]", "values": [{"measurement": "inhibition", "setting": "Homo sapiens", "result": "Active"}, {"measurement": "IC50", "setting": "Dynamin-1", "result": 10.8, "unit": "µM"}, {"measurement": "inhibition", "setting": "Dynamin-1 (Homo sapiens)", "result": 69.8, "unit": "%"}, {"measurement": "IC50", "setting": "COS-7 [4]", "result": 15, "unit": "µM"}, {"measurement": "inhibition", "setting": "COS-7 [5]", "result": "inactive"}]}, {"compound": "Cc1ccc(/C=N/NC(=O)c2cc3ccccc3cc2O)cc1C", "values": [{"measurement": "inhibition", "setting": "Dynamin-1 (Homo sapiens)", "result": 0, "unit": "%"}]}]}
